# Read-outs that look alike come from different tables or passages of the source.
# How the values were obtained:
# [1] = tested on: confused flour beetle; test: Initial contact activity, confused flour beetle; format: in vivo; settings: Tribolium confusum, read-out: % Kill, FB (initial contact)
# Method: (§1) Initial Contact Activity: One-half gram of test compound was dissolved in 40 ml of acetone and this solution was dispersed in 360 ml of water containing one drop of isooctyl phenyl polyethoxyethanol. An aliquot of this solution was diluted with water to provide a solution containing 1250 ppm of active ingredient. Test organisms and techniques were as follows: The activities against the Mexican bean beetle (Epilachna varivestis Muls.) and the southern army worm (Prodenia eridania [Cram.]) were evaluated by dipping the leaves of pinto bean plants into the test solution and infesting the leaves with the appropriate immature form insects when the foliage had dried; the activity against the pea aphid (Macrosiphum pisi [Harris]) was evaluated on broad bean plants whose leaves were dipped before infestation with adult aphids; the activity against the two-spotted spider mite (Tetranychus urticae [L.]) was evaluated on pinto bean plants whose leaves were dipped after infestation with adult mites; the activities against the milkweed bug (Oncopeltus fascinatus [Dallas]) and the plum curculio (Conotrachelus nenuphar [Herbst]) were evaluated by spraying the test solutions into glass dishes containing the adult insects; the activities against the granary weevil (Sitophilus granarius [L.]) and the confused flour beetle (Tribolium confusum [duVal]) were evaluated by introducing the insects into glass dishes which had been previously sprayed with test solution and allowed to dry. All organisms in the test were maintained in a holding room at 80° F. and 50% relative humidity for an exposure period of forty-eight hours. At this time the number of dead and living insects were counted and the percent kill was calculated.
# [2] = tested on: two-spotted spider mite; test: whole plant or invertebrate; settings: Tetranychus urticae, 48 h, read-out: % Kill, SM (systemic)
# [3] = tested on: Culex fatigans; test: whole plant or invertebrate; settings: Culex quinquefasciatus, 24 h, read-out: Mosquitoes LC50
# Method: The appropriate amount of stock solution was added with stirring to 100 ml of tap water and 20-25 fourth instar larvae of Culex fatigans were placed in the solution. After twenty-four hours, the counts were taken. Larvae not able to rise to the surface on touch were counted as dead. Each concentration was run in duplicate and each material was run on two or three different days. The average percent mortality was plotted against the logarithm of the concentration (in ppm) and the LC50 value determined by inspection.
# [4] = tested on: milkweed bug; test: Residual contact activity, milkweed bug; settings: Oncopeltus fasciatus, 48 h, read-out: % Kill, MWB (residual contact)
# [5] = tested on: milkweed bug; test: Initial contact activity, milkweed bug; settings: Oncopeltus fasciatus, 48 h, read-out: % Kill, MWB (initial contact)
# [6] = tested on: houseflies; test: whole plant or invertebrate; settings: Musca domestica, topical, 24 h, read-out: Houseflies LD50
# Method: Toxicity of the compounds of the present invention to houseflies was tested using the technique described by March and Metcalf in Bull. Calif. State Dept. Agr. […] Adult female houseflies were treated with one drop of acetone solution, applied to the prothorax, using a syringe calibrated to deliver 1.00 ± 0.05 mm^3 drops. Twenty flies were treated at each dosage, each test compound was applied at 8 to 10 dosage levels. Each test was replicated three times. […] A one-inch square of cotton saturated with 40% sugar solution was provided for food in each carton. The cartons of flies were held in a constant temperature chamber at 60° F and 60% relative humidity for 24 hours before mortality counts were made. Flies totally unable to make crawling or walking movements were counted as dead. LD50 values were calculated in the conventional manner.
# [7] = tested on: Mexican bean beetle; test: Initial contact activity, Mexican bean beetle; settings: Epilachna varivestis, 48 h, read-out: % Kill, BB (initial contact)
# [8] = tested on: two-spotted spider mite; test: Residual contact activity, two-spotted spider mite; settings: Tetranychus urticae, 48 h, read-out: % Kill, SM (residual contact)
# [9] = tested on: southern army worm; test: Residual contact activity, southern army worm; settings: 1250 ppm; 7 days; 2880 min
# [10] = tested on: plum curculio; test: Residual contact activity, plum curculio; settings: Conotrachelus nenuphar, 48 h, read-out: % Kill, PC (residual contact)
# [11] = tested on: Mexican bean beetle; test: Residual contact activity, Mexican bean beetle; settings: Epilachna varivestis, 48 h, read-out: % Kill, BB (residual contact)
# [12] = tested on: Mexican bean beetle; test: whole plant or invertebrate; settings: Epilachna varivestis, 48 h, read-out: % Kill, BB (systemic)
# [13] = tested on: plum curculio; test: Initial contact activity, plum curculio; settings: Conotrachelus nenuphar, 48 h, read-out: % Kill, PC (initial contact)
# [14] = tested on: southern army worm; test: Initial contact activity, southern army worm; settings: 1250 ppm, 48 h exposure
# [15] = tested on: granary weevil; test: Residual contact activity, granary weevil; settings: Sitophilus granarius, 48 h, read-out: % Kill, GW (residual contact)
# [16] = tested on: confused flour beetle; test: Residual contact activity, confused flour beetle; format: in vivo; settings: Tribolium confusum, 48 h, read-out: % Kill, FB (residual contact)
# Method: as §1
# The residual contact activity of the compounds was determined on the same organisms using the technique described above, except that in each case the treated surface was allowed to dry and was exposed to normal light and air for seven days before introduction of the mites or insects. The compounds show a high order of residual activity toward the test insects.
# [17] = tested on: pea aphid; test: whole plant or invertebrate; settings: Acyrthosiphon pisum, 48 h, read-out: % Kill, PA (systemic)
# [18] = tested on: granary weevil; test: Initial contact activity, granary weevil; settings: Sitophilus granarius, 48 h, read-out: % Kill, GW (initial contact)
# [19] = tested on: two-spotted spider mite; test: Initial contact activity, two-spotted spider mite; settings: Tetranychus urticae, 48 h, read-out: % Kill, SM (initial contact)
# [20] = tested on: southern army worm; settings: 2880 min
# [21] = in vivo; settings: mouse, po
# Method: Acute oral toxicity of the compounds of the present invention to mice was determined after the manner of Hollingworth, Fukuto, and Metcalf in J. Agr. […] A dose of 0.25 ml of each solution was administered to each of four female white Swiss mice using the "bolus" - tipped syringe. […] Final mortality determinations were made forty-eight hours after treatment.
# [22] = tested on: pea aphid; test: Initial contact activity, pea aphid; settings: Acyrthosiphon pisum, 48 h, read-out: % Kill, PA (initial contact)
# [23] = tested on: pea aphid; test: Residual contact activity, pea aphid; settings: Acyrthosiphon pisum, 48 h, read-out: % Kill, PA (residual contact)
# [24] = 39 ppm soil watering, separate test vs carbofuran
Structure (SMILES),mortality at 39 ppm [2],mortality at 156 ppm [2],LC50 [3],mortality at 1250 ppm [4],mortality at 1250 ppm [5],LD50 [6],mortality at 1250 ppm [7],mortality at 1250 ppm [8],"% Kill, AW (residual contact) [9]",mortality at 1250 ppm [10],mortality at 1250 ppm [11],mortality at 39 ppm [12],mortality at 156 ppm [12],mortality at 1250 ppm [13],"% Kill, AW (initial contact) [14]",mortality at 1250 ppm [15],mortality at 39 ppm [17],mortality at 1250 ppm [18],mortality at 1250 ppm [19],"% Kill, AW (systemic) [20, 24]",also measured
"Cc1ccccc1SN(C)C(=O)Oc1cccc2c1OC(C)(C)C2 [Example II, 2,3-Dihydro-2,2-dimethyl-7-benzofuranyl (methyl)(2-methylphenylthio)carbamate]",5%,5%,4 ng/mL,100%,100%,3.7 mg/kg,100%,13%,100%,100%,100%,100%,100%,100%,100%,100%,100%,100%,28%,85%,"mortality at 1250 ppm ([1]; 1250 ppm, 48 h exposure): 98%; mortality at 1250 ppm ([16]; 1250 ppm, 7 days): 98%; % Kill, AW (systemic) ([20]; 156 ppm soil watering): 100%; LD50 at 48 h [21]: 100 to 125 mg/kg"
"CN(Sc1ccc(C(C)(C)C)cc1)C(=O)Oc1cccc2c1OC(C)(C)C2 [Example III, 2,3-Dihydro-2,2-dimethyl-7-benzofuranyl (4-tert-butylphenylthio)(methyl)carbamate]",1%,4%,2.5 ng/mL,100%,100%,2.7 mg/kg,100%,2%,31%,95%,100%,56%,100%,100%,100%,100%,5%,100%,27%,0%,"mortality at 1250 ppm ([1]; 1250 ppm, 48 h exposure): 100%; mortality at 1250 ppm ([16]; 1250 ppm, 7 days): 100%; mortality at 156 ppm [17]: 43%; % Kill, AW (systemic) ([20]; 156 ppm soil watering): 0%; LD50 at 48 h [21]: 75 mg/kg"
"Cc1cc(C(C)(C)C)ccc1SN(C)C(=O)Oc1cccc2c1OC(C)(C)C2 [Example VI, 2,3-Dihydro-2,2-dimethyl-7-benzofuranyl [4-(tert-butyl)-2-methylphenylthio] (methyl)carbamate]",11%,6%,2 ng/mL,95%,100%,7.5 mg/kg,100%,7%,100%,53%,100%,85%,100%,100%,95%,100%,35%,100%,77%,0%,"mortality at 1250 ppm ([1]; 1250 ppm, 48 h exposure): 90%; mortality at 1250 ppm [22]: 0%; mortality at 1250 ppm [23]: 0%; mortality at 1250 ppm ([16]; 1250 ppm, 7 days): 100%; mortality at 156 ppm [17]: 95%; % Kill, AW (systemic) ([20]; 156 ppm soil watering): 0%; LD50 at 48 h [21]: 75 to 125 mg/kg"
"Cc1cccc(SN(C)C(=O)Oc2cccc3c2OC(C)(C)C3)c1 [Example X, 2,3-Dihydro-2,2-dimethyl-7-benzofuranyl (3-methylphenylthio)(methyl)carbamate]",26%,28%,4 ng/mL,100%,100%,6.5 mg/kg,100%,30%,100%,95%,100%,100%,100%,100%,100%,100%,100%,100%,100%,100%,"mortality at 1250 ppm ([1]; 1250 ppm, 48 h exposure): 100%; mortality at 1250 ppm [22]: 100%; mortality at 1250 ppm [23]: 100%; mortality at 1250 ppm ([16]; 1250 ppm, 7 days): 100%; mortality at 156 ppm [17]: 100%; % Kill, AW (systemic) ([20]; 156 ppm soil watering): 100%; LD50 at 48 h [21]: 25 to 50 mg/kg"
"Cc1ccc(SN(C)C(=O)Oc2cccc3c2OC(C)(C)C3)cc1 [IV, 2,3-Dihydro-2,2-dimethyl-7-benzofuranyl(methyl)(4-methylphenylthio)carbamate]",24%,64%,4.5 ng/mL,100%,100%,9 mg/kg,100%,94%,100%,100%,100%,100%,100%,100%,100%,100%,100%,100%,100%,100%,"mortality at 1250 ppm ([1]; 48 h): 100%; mortality at 1250 ppm [16]: 92%; % Kill, AW (systemic) ([20]; 156 ppm soil watering): 100%; LD50 at 48 h [21]: 100 to 125 mg/kg"

# Reference: patent US3997549A, “N-arylsulfenylated derivatives of benzofuranyl methylcarbamates” (priority 1973, dated 1976)
